Reference: the NIST ThermoML archive (doi:10.1016/j.tca.2014.07.001)

Conditions: Liquid; for mass density: 101.33 kPa, Vibrating tube method; for vapor or sublimation pressure: Rate of evaporation

Cc1cc(OC(=O)C(C)(C)C)cc(OC(=O)C(C)(C)C)c1
Conditions	mass density [kg/m3]	vapor or sublimation pressure [kPa]
323.1 K	977.806	–
333.1 K	969.344	–
343.1 K	960.889	–
353.1 K	952.427	–
363.1 K	943.951	–
456 K	–	1.816
460 K	–	2.127
464 K	–	2.485
468 K	–	2.894
472 K	–	3.363
476 K	–	3.898
480 K	–	4.506
484 K	–	5.197
488 K	–	5.98
492 K	–	6.865
496 K	–	7.864
500 K	–	8.989
504 K	–	10.25
508 K	–	11.67
512 K	–	13.26
516 K	–	15.03
520 K	–	17
524 K	–	19.2
528 K	–	21.65
532 K	–	24.36
536 K	–	26.58

CCCCOc1cc(C)cc(OCCCC)c1 [1,3-dibutoxy-5-methylbenzene]
Conditions	mass density [kg/m3]	vapor or sublimation pressure [kPa]
278.2 K	955.338	–
298.1 K	938.896	–
318.1 K	922.519	–
338.1 K	906	–
358.1 K	889.4	–
421 K	–	1.076
425 K	–	1.286
429 K	–	1.533
433 K	–	1.821
437 K	–	2.156
441 K	–	2.545
445 K	–	2.995
449 K	–	3.515
453 K	–	4.114
457 K	–	4.801
461 K	–	5.588
465 K	–	6.487
469 K	–	7.512
473 K	–	8.677
477 K	–	9.998
481 K	–	11.49
485 K	–	13.18
489 K	–	15.09
493 K	–	17.23
497 K	–	19.63
501 K	–	22.32
505 K	–	25.32
509 K	–	28.68
513 K	–	32.42
517 K	–	34.44

Cc1cc(OCC(C)C)cc(OCC(C)C)c1 [1-methyl-3,5-bis(2-methylpropoxy)benzene]
Conditions	mass density [kg/m3]	vapor or sublimation pressure [kPa]
328.2 K	908.941	–
338.2 K	901.02	–
348.2 K	893.071	–
358.2 K	885.087	–
446 K	–	2.406
449 K	–	2.737
452 K	–	3.108
455 K	–	3.524
458 K	–	3.989
461 K	–	4.508
464 K	–	5.086
467 K	–	5.729
470 K	–	6.445
473 K	–	7.238
476 K	–	8.118
479 K	–	9.091
482 K	–	10.17
485 K	–	11.35
488 K	–	12.66
491 K	–	14.1
494 K	–	15.69
497 K	–	17.43
500 K	–	19.33
503 K	–	21.42
506 K	–	23.71
509 K	–	26.21

Cc1cc(OCCc2ccccc2)cc(OCCc2ccccc2)c1 [1-methyl-3,5-bis(2-phenylethoxy)benzene]
Conditions	mass density [kg/m3]	vapor or sublimation pressure [kPa]
283.2 K	921.532	–
303.2 K	907.265	–
323.2 K	893.041	–
343.2 K	878.854	–
363.2 K	864.445	–
507 K	–	1.602
510 K	–	1.802
513 K	–	2.024
516 K	–	2.271
519 K	–	2.543
522 K	–	2.845
525 K	–	3.179
528 K	–	3.548
531 K	–	3.954
534 K	–	4.401
537 K	–	4.893
540 K	–	5.434
543 K	–	6.027
546 K	–	6.678
549 K	–	7.39
552 K	–	8.17
555 K	–	9.022
558 K	–	9.952
561 K	–	10.97
564 K	–	12.07
567 K	–	13.28
570 K	–	14.59
573 K	–	15.52

Cc1cc(OC(C)C)cc(OC(C)C)c1 [1-methyl-3,5-bis(propan-2-yloxy)benzene]
Conditions	mass density [kg/m3]	vapor or sublimation pressure [kPa]
283.2 K	963.279	–
303.2 K	945.753	–
323.2 K	928.213	–
343.2 K	910.635	–
363.2 K	892.968	–
419 K	–	2.389
422 K	–	2.713
425 K	–	3.074
428 K	–	3.478
431 K	–	3.928
434 K	–	4.428
437 K	–	4.984
440 K	–	5.601
443 K	–	6.285
446 K	–	7.041
449 K	–	7.876
452 K	–	8.796
455 K	–	9.811
458 K	–	10.93
461 K	–	12.15
464 K	–	13.49
467 K	–	14.97
470 K	–	16.58
473 K	–	18.34
476 K	–	20.26
479 K	–	22.36

CCCCC(=O)Oc1cc(C)cc(OC(=O)CCCC)c1 [3-methyl-5-(pentanoyloxy)phenyl pentanoate]
Conditions	mass density [kg/m3]	vapor or sublimation pressure [kPa]
278.2 K	1031.85	–
298.1 K	1015.28	–
318.1 K	998.841	–
338.1 K	982.449	–
358.1 K	966.043	–
464 K	–	0.708
468 K	–	0.844
472 K	–	1.004
476 K	–	1.19
480 K	–	1.406
484 K	–	1.657
488 K	–	1.948
492 K	–	2.284
496 K	–	2.671
500 K	–	3.116
504 K	–	3.626
508 K	–	4.209
512 K	–	4.875
516 K	–	5.633
520 K	–	6.495
524 K	–	7.472
528 K	–	8.579
532 K	–	9.828
536 K	–	11.24
540 K	–	12.82
544 K	–	14.6
548 K	–	16.6
552 K	–	18.83
556 K	–	21.33
560 K	–	24.11
